Active and inactive are the calls of the source. No cut-off for these calls is given here. Starred links: 1 amine or outer side, 2 acyl side, 3 side chain; linkers in the order of their positions; H or OH if unused. Residues, ends and D or L forms follow the SMILES beside them. Groups on a side chain read outwards from the residue. *: point of attachment. X1 = Cc1ccc(C)c(OCCCC(C)(C)C(=O)OCC(=O)NCCCCCCCCCC(NC(=O)COC(=O)C(C)(C)CCCOc2cc(C)ccc2C)C(=O)*)c1; γGlu = O=C(O)[C@H](CCC(=O)[*:2])N[*:1]
Assays:
[1] = target: Glucagon-like peptide 1 receptor (Homo sapiens, UniProt P43220); assay: Agonist activity at human GLP-1R expressed in HEK293 cells assessed as stimulation of cAMP accumulation incubated for 60 mins by HTRF assay; assay type: functional, cell-based
Chain of Glucagon-like peptide 1 receptor (P43220 whole entry): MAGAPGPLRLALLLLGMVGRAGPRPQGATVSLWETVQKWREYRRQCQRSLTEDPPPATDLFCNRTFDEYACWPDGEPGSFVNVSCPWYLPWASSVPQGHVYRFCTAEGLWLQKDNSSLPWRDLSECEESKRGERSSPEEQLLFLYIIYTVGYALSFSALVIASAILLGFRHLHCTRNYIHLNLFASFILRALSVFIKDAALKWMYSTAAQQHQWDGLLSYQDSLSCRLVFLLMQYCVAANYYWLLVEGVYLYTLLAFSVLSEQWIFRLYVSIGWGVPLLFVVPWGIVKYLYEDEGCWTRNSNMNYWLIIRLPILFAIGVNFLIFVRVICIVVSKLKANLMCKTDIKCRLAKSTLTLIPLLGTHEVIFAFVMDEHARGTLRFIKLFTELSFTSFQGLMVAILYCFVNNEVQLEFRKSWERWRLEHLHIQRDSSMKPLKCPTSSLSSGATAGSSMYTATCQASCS

Mus musculus [2] = assay: Hypoglycemic activity in 12 hrs fasted ICR mouse assessed as reduction in blood glucose level at 25 nmol/kg, ip dosed 30 mins before glucose challenge measured up to 120 mins by OGTT method; assay type: functional, organism-based; details: time 150.0 min
[3] = Stability in Sprague-Dawley rat plasma assessed as half life at 1000 ng/ml measured up to 48 hrs under shaking condition by LC-MS/MS analysis; assay type: ADME, cell-free
Albumin = Albumin (Homo sapiens, UniProt P02768); assay: Binding affinity to human serum albumin assessed as retention factor by HPAC method; assay type: ADME
Chain of Albumin (P02768 whole entry): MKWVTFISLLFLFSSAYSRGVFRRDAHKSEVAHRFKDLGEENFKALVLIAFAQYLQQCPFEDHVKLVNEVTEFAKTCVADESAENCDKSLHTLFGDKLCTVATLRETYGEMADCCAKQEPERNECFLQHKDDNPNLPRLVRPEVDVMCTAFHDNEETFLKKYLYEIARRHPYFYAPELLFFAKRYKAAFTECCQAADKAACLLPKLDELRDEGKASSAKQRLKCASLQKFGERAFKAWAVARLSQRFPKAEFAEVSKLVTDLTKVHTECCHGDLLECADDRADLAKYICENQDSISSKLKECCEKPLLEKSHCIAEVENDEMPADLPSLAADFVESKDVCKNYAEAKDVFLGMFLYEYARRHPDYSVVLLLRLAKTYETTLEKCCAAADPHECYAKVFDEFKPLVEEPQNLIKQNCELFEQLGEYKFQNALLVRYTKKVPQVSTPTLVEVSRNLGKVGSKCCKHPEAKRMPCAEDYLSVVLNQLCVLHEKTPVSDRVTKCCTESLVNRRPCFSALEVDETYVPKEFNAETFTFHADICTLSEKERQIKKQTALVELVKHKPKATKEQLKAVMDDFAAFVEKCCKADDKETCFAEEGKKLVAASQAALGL

Mus musculus [4] = assay: Hypoglycemic activity in non-fasted db/db mouse assessed as duration of time during which decrease in blood glucose concentration is observed at 25 nmol/kg, sc by OGTT method; assay type: functional
[5] = Half life in Sprague-Dawley rat at 50 nmol/kg, sc measured up to 24 hrs by LC-MS/MS analysis; assay type: ADME, organism-based; details: in vivo
[6] = Tmax in Sprague-Dawley rat at 50 nmol/kg, sc measured up to 24 hrs by LC-MS/MS analysis; assay type: ADME, organism-based; details: in vivo
Mus musculus [7] = assay: Hypoglycemic activity in db/db mouse assessed as decrease in glucose excursion at 25 nmol/kg, ip dosed 30 mins before glucose challenge and measured up to 180 mins by OGTT method; assay type: functional, organism-based; details: time 210.0 min
Mus musculus [8] = assay: Hypoglycemic activity in db/db mouse assessed as improvement in glucose tolerance at 25 nmol/kg, ip dosed 30 mins before glucose challenge and measured up to 180 mins by OGTT method; assay type: functional, organism-based; details: time 210.0 min
Mus musculus [9] = assay: Insulinotropic activity in db/db mouse assessed as improvement in plasma insulin level at 25 nmol/kg, ip dosed 30 mins before glucose challenge and measured up to 60 mins by ELISA; assay type: functional, organism-based; details: time 90.0 min
Mus musculus [10] = assay: Hypoglycemic activity in non-fasted sc dosed db/db mouse assessed as reduction in blood glucose treated 30 mins before glucose challenge and measured up to 48 hrs by OGTT method; assay type: functional, organism-based; details: dose 25-100 nmol/kg, time min <=2910
Mus musculus [11] = assay: Anorectic activity in non-fasted sc dosed db/db mouse assessed as reduction in food intake treated 30 mins before glucose challenge and measured up to 48 hrs; assay type: functional, organism-based; details: time min <=2910
Mus musculus [12] = assay: Hypoglycemic activity in 16 hrs fasted db/db mouse assessed as reduction in blood glucose level at 25 nmol/kg, ip treated 30 mins before glucose challenge and measured at 0 to 12 hrs by multiple OGTT; assay type: functional, organism-based; details: time 750.0 min
Mus musculus [13] = assay: Gastric emptying in 6 hrs fasted ICR mouse assessed as reduction in blood paracetamol concentration at 25 nmol/kg, ip dosed 30 mins before paracetamol dosing measured up to 60 mins by LC-MS/MS analysis; assay type: functional, organism-based; details: time 90.0 min
[14] = Inhibition of solid-phase gastric emptying in 12 hrs fasted ICR mouse assessed reduction in gastric emptying rate at 25 nmol/kg, ip allowed for food intake 1 hrs and measured after 4 hrs […]; assay type: functional; set-up: scale not given: the % may be the effect or the level left
[15] = Hepatotoxicity in ICR mouse assessed as effect on aspartate aminotransferase level at 1000 nmol/kg, sc administered once daily for 2 weeks; assay type: toxicity, organism-based; details: in vivo, 336 h
[16] = Hepatotoxicity in ICR mouse assessed as effect on alanine aminotransferase level at 1000 nmol/kg, sc administered once daily for 2 weeks; assay type: toxicity, organism-based; details: in vivo, 336 h
[17] = Renal toxicity in ICR mouse assessed as effect on blood urea nitrogen level at 1000 nmol/kg, sc administered once daily for 2 weeks; assay type: organism-based; details: in vivo, 336 h
[18] = Renal toxicity in ICR mouse assessed as effect on serum creatinine level at 1000 nmol/kg, sc administered once daily for 2 weeks; assay type: organism-based; details: in vivo, 336 h
Mus musculus [19] = assay: Reduction in body weight in C57BL/6 mouse model of diet induced obesity at 25 nmol/kg, sc administered once daily for 21 days relative to control; assay type: functional; set-up: scale not given: the % may be the effect or the level left; details: time 21 day
Mus musculus [20] = assay: Anorectic activity in C57BL/6 mouse model of diet induced obesity assessed as reduction in food intake at 25 nmol/kg, sc administered once daily for 21 days relative to control; assay type: functional, organism-based; details: time 21.0 day
Mus musculus [21] = assay: Reduction in body fat content in C57BL/6 mouse model of high-fat diet induced obesity at 25 nmol/kg, sc administered once daily for 21 days relative to control; assay type: functional; set-up: scale not given: the % may be the effect or the level left; details: time 21 day
Mus musculus [22] = assay: Reduction in serum triglyceride in C57BL/6 mouse model of high-fat diet induced obesity at 25 nmol/kg, sc administered once daily for 21 days; assay type: functional, organism-based; details: time 21.0 day
Mus musculus [23] = assay: Reduction in serum total cholesterol in C57BL/6 mouse model of high-fat diet induced obesity at 25 nmol/kg, sc administered once daily for 21 days; assay type: functional, organism-based; details: time 21.0 day
Mus musculus [24] = assay: Increase in serum HDL level in C57BL/6 mouse model of high-fat diet induced obesity at 25 nmol/kg, sc administered once daily for 21 days; assay type: functional, organism-based; details: time 21.0 day
Mus musculus [25] = assay: Reduction in serum LDL level in C57BL/6 mouse model of high-fat diet induced obesity at 25 nmol/kg, sc administered once daily for 21 days; assay type: functional, organism-based; details: time 21.0 day
Mus musculus [26] = assay: Effect in normal chow diet fed C57BL/6 mouse assessed as reduction in body weight increase at 25 nmol/kg, sc administered once daily for 21 days (reference value: 10.8%); assay type: functional; set-up: scale not given: the % may be the effect or the level left; details: time 21 day
Mus musculus [27] = assay: Anorectic effect in normal chow diet fed C57BL/6 mouse assessed as reduction in food intake at 25 nmol/kg, sc administered once daily for 21 days; assay type: functional, organism-based; details: time 21.0 day
Mus musculus [28] = assay: Inhibition of fat mass gain in normal chow diet fed C57BL/6 mouse at 25 nmol/kg, sc administered once daily for 21 days; assay type: functional, organism-based; details: time 21.0 day
Mus musculus [29] = assay: Hypoglycemic activity in normal chow diet fed C57BL/6 mouse assessed as fasting blood glucose at 25 nmol/kg, sc administered once daily for 21 days; assay type: functional, organism-based; details: time 21.0 day
Mus musculus [30] = assay: Improvement in glucose tolerance in standard chow diet fed C57BL/6 mouse at 25 nmol/kg, sc administered once daily for 21 days; assay type: functional, organism-based; details: time 21.0 day
Mus musculus [31] = assay: Reduction in body weight gain in db/db mouse at 25 nmol/kg, sc administered once daily for 21 days; assay type: functional, organism-based; details: time 21.0 day
Mus musculus [32] = assay: Improvement in fasted blood glucose level in db/db mouse at 25 nmol/kg, sc administered once daily for 21 days; assay type: functional, organism-based; details: time 21.0 day
Mus musculus [33] = assay: Improvement in HbA1c level in db/db mouse at 25 nmol/kg, sc administered once daily for 21 days; assay type: functional, organism-based; details: time 21.0 day
Mus musculus [34] = assay: Improvement in glucose tolerance in db/db mouse at 25 nmol/kg, sc administered once daily for 42 days by OGTT; assay type: functional, organism-based; details: time 42.0 day
Mus musculus [35] = assay: Reduction in HbA1c level in db/db mouse at 25 nmol/kg, sc administered once daily for 42 days by OGTT; assay type: functional, organism-based; details: time 42.0 day
Mus musculus [36] = assay: Hypoglycemic activity in non-fasted db/db […] mouse assessed as reduction in blood glucose level at 25 nmol/kg, ip dosed 30 mins before glucose challenge measured up to 120 mins by OGTT method; assay type: functional, organism-based
Mus musculus [37] = assay: Hypoglycemic activity in non-fasted db/db […] mouse assessed as increase in duration of time under normoglycemic state at 25 nmol/kg, sc by OGTT method relative to liraglutide; assay type: functional, organism-based
Mus musculus [38] = assay: Improvement in glucose tolerance in db/db mouse assessed as time for superior hypoglycemic effect by measuring glucose AUC at 25 nmol/kg, sc administered once daily for 42 days by OGTT; assay type: functional; details: time 42 day

In the case of `CC[C@H](C)[C@H](NC(=O)[C@H](CC(C)C)NC(=O)[C@H](Cc1c[nH]c2ccccc12)NC(=O)[C@H](CCC(=O)O)NC(=O)[C@@H](NC(=O)[C@H](Cc1ccccc1)NC(=O)[C@H](CCC(=O)O)NC(=O)[C@H](CCCCNC(=O)CC[C@H](NC(=O)C(CCCCCCCCCNC(=O)COC(=O)C(C)(C)CCCOc1cc(C)ccc1C)NC(=O)COC(=O)C(C)(C)CCCOc1cc(C)ccc1C)C(=O)O)NC(=O)[C@H](C)NC(=O)[C@H](C)NC(=O)[C@H](CCC(=O)O)NC(=O)[C@H](CCC(=O)O)NC(=O)[C@H](CCC(=O)O)NC(=O)[C@H](CC(C)C)NC(=O)[C@H](Cc1ccc(O)cc1)NC(=O)[C@H](CCC(=O)O)NC(=O)[C@@H](NC(=O)[C@@H](NC(=O)[C@H](CC(=O)O)NC(=O)[C@H](CC(N)=O)NC(=O)[C@@H](NC(=O)[C@H](Cc1ccc(O)cc1)NC(=O)[C@@H](NC(=O)CNC(=O)[C@H](CCC(=O)O)NC(=O)CNC(=O)[C@@H](N)Cc1cnc[nH]1)[C@@H](C)O)[C@@H](C)O)C(C)C)[C@@H](C)O)[C@@H](C)CC)C(=O)N[C@@H](CCCCN)C(=O)NCC(=O)N[C@@H](CCCCN)C(=O)N1CCC[C@H]1C(=O)N[C@@H](CO)C(=O)N[C@@H](CO)C(=O)NCC(=O)N[C@@H](C)C(=O)N1CCC[C@H]1C(=O)N1CCC[C@H]1C(=O)N1CCC[C@H]1C(=O)N[C@@H](CO)C(=O)O` (some centres undefined) (H-HGEGTYTNDVTEYLEEEAAK([γGlu-X1])EFIEWLIKGKPSSGAPPPS-OH), the EC50 [1] is reported as 0.17 nM, the Activity (Mus musculus [2]) is reported as “Active” and the half-life at 1000 ng/ml [3] is reported as 37.6 h. It also gave a K (Albumin) of 13.3, a Time (Mus musculus [4]) of 24 h and a half-life [5] of 7 h. For the same compound, the Tmax [6] was 4 h, the Activity (Mus musculus [7]) was “Active” and the Activity (Mus musculus [8]) was “Active”. The Activity (Mus musculus [9]) was “Active”, the Activity (Mus musculus [10]) was “Dose-dependent effect” and the Activity (Mus musculus [11]) was “Dose-dependent effect”. The Activity (Mus musculus [12]) was “Active”, the Activity (Mus musculus [13]) was “Active” and the Activity [14] was 48.3%. The Activity [15] was “Non-Toxic”, the Activity [16] was “Non-Toxic” and the Activity [17] was “Non-Toxic”. The Activity [18] was “Non-Toxic”, the Activity (Mus musculus [19]) was 15.4% and the Activity (Mus musculus [20]) was “Active”. The Activity (Mus musculus [21]) was 29.8%, the Activity (Mus musculus [22]) was “Active” and the Activity (Mus musculus [23]) was “Active”. The Activity (Mus musculus [24]) was “Active”, the Activity (Mus musculus [25]) was “Active” and the Activity (Mus musculus [26]) was 4.5%. The Activity (Mus musculus [27]) was “Active”, the Activity (Mus musculus [28]) was “Active” and the Activity (Mus musculus [29]) was “inactive”. The Activity (Mus musculus [30]) was “inactive”, the Activity (Mus musculus [31]) was “Active” and the Activity (Mus musculus [32]) was “Active”. The Activity (Mus musculus [33]) was “Active”, the Activity (Mus musculus [34]) was “Active” and the Activity (Mus musculus [35]) was “Active”. For the same compound, the Activity (Mus musculus [36]) was “Active”, the Activity (Mus musculus [37]) was “Active” and the Time (Mus musculus [38]) was 84 days.

Source: ChEMBL document CHEMBL4765314, “Rational design and biological evaluation of gemfibrozil modified Xenopus GLP-1 derivatives as long-acting hypoglycemic agents” (Eur J Med Chem, 2020)
